Measurements from the supplement of paper PMC10307832.

Assays:
Assay in all cases: relative viability (nuclei count vs DMSO), 5 days (fraction); higher = more cells survive
Sulindac + OSI-027 = compound: CC1=C(CC(=O)O)c2cc(F)ccc2/C1=C\c1ccc([S+](C)[O-])cc1 [Sulindac] + COc1cccc2cc(-c3nc([C@H]4CC[C@H](C(=O)O)CC4)n4ncnc(N)c34)[nH]c12 [OSI-027] (partner 0.5 µM)
Procedure, shortened: (§1)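 The day after seeding in 1536-well plates, lung cancer cell lines were treated by pin tool with a single drug, or with a fixed anchor-drug dose together with five library-drug doses (not always all listed) in √10 steps. After 5 days, a combined fix-and-stain solution (final 0.05% Triton X-100, 1% formaldehyde, 1 ug/ml Hoechst) was added. Nuclei counted on 4× images gave relative viability as treated counts over vehicle counts, reported as the median of duplicate plates.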

[1] = compound: O=c1[nH]cc(F)c(=O)[nH]1 [5-Fluorouracil] + C[C@@H](Oc1cc(-c2cnn(C3CCNCC3)c2)cnc1N)c1c(Cl)ccc(F)c1Cl [Crizotinib] (partner 1 µM)
Procedure, shortened: as §1

[2] = compound: O=c1[nH]cc(F)c(=O)[nH]1 [5-Fluorouracil] + O=C(CCCCCCC(=O)Nc1ccccc1)NO [Vorinostat] (partner 1 µM)
Procedure, shortened: as §1

[3] = compound: CN[C@@H]1C[C@H]2O[C@@](C)([C@@H]1OC)n1c3ccccc3c3c4c(c5c6ccccc6n2c5c31)C(=O)NC4 [Staurosporine] + Cc1cc(Nc2cc(N3CCN(C)CC3)nc(Sc3ccc(NC(=O)C4CC4)cc3)n2)n[nH]1 [Tozasertib] (partner 0.1 µM)
Procedure, shortened: as §1

Cell Line	relative viability (Sulindac + OSI-027; first compound 0.08 µM)	relative viability (Sulindac + OSI-027; first compound 0.253 µM)	relative viability (Sulindac + OSI-027; first compound 0.8 µM)	relative viability (Sulindac + OSI-027; first compound 2.53 µM)	relative viability (Sulindac + OSI-027; first compound 8 µM)	relative viability ([1]; first compound 0.02 µM)	relative viability ([1]; first compound 0.2 µM)	relative viability ([1]; first compound 0.6325 µM)	relative viability ([1]; first compound 2 µM)	relative viability ([2]; first compound 0.02 µM)	relative viability ([2]; first compound 0.2 µM)	relative viability ([2]; first compound 0.6325 µM)	relative viability ([2]; first compound 2 µM)	relative viability ([3]; first compound 0.005 µM)	relative viability ([3]; first compound 0.01581 µM)	relative viability ([3]; first compound 0.05 µM)	relative viability ([3]; first compound 0.1581 µM)	relative viability ([3]; first compound 0.5 µM)
CAL-12T	0.534	0.847	0.51	0.61	0.696	0.802	0.592	0.444	0.312	0.759	0.591	0.563	0.447	0.146	0.117	0.101	0.132	0.0975
COR-L 105	0.653	0.747	0.498	0.635	0.843	0.852	0.806	0.647	0.453	0.718	0.881	0.771	0.626	0.253	0.26	0.245	0.237	0.229
NCI-H2405	0.664	0.711	0.736	0.602	0.685	0.871	0.954	0.797	0.579	1.02	1.14	0.931	0.522	0.586	0.256	0.0844	0.0771	0.0789
NCI-H2228	0.794	0.687	0.533	0.502	0.56	0.441	0.483	0.457	0.343	0.665	0.373	0.407	0.321	0.251	0.201	0.109	0.115	0.124
PC-3 [JPC-3]	0.715	0.797	0.614	0.752	0.728	0.989	0.996	0.882	0.676	0.752	0.825	0.871	0.522	0.919	0.598	0.512	0.321	0.344
SW 1573	0.722	0.676	–	0.699	0.578	0.824	0.899	0.778	0.463	0.873	0.843	0.778	0.466	0.153	0.186	0.119	0.0873	0.069
A549	–	–	–	–	–	0.783	0.517	0.295	0.107	–	–	–	–	–	–	–	–	–
NCI-H1648	0.25	0.242	0.298	0.268	0.265	–	–	–	–	0.482	0.389	0.495	0.263	0.236	0.185	0.169	0.214	0.243
NCI-H1623	0.401	0.427	0.415	0.409	0.421	–	–	–	–	–	–	–	–	0.491	0.495	0.406	0.425	0.277
NCI-H1666	0.857	0.882	0.753	0.826	0.915	0.94	0.406	0.366	0.344	0.981	0.649	0.577	0.563	0.544	0.44	0.402	0.355	0.257
